These results are taken from US9775878B2, “Methods for treating bacterial infections using oritavancin and polymyxins” (The Medicines Company, priority 2013, dated 2017).

The test system of experiment [1] is Acinetobacter baumannii strains. Description: Broth macrodilution MICs under conditions used for synergy time-kill assays. Type of experiment: cell-based. The following applies: ATCC19609, read-out: Broth macrodilution MICs.
The test system is the same in experiment [2]. Description: Synergy time-kill assay. Type of experiment: cell-based. The following applies: concentration of the agent within the ORI+COL combination, ≧2 log CFU/mL decrease vs most active constituent at 24 h, 0.002% P80. On the procedure:
(§1) Broth microdilution MIC testing (CLSI M07-A9) was performed on the Acinetobacter baumannii (AB) reference strain ATCC 19606 (obtained from ATCC) and 10 AB strains, including 8 MDRAB (resistant to ≧3 of the following: beta-lactams, gentamicin, fluoroquinolones and tetracycline; obtained from Eurofins Medinet Chantilly, Va.). The requirement of 0.002% polysorbate 80 (P-80) for testing oritavancin also necessitated the testing of COL in the presence of P80. Checkerboard assays were used to determine activity of antimicrobial combinations; fractional inhibitory concentration indices (FICI) were used to define synergy, indifference or antagonism. Broth macrodilution MICs were determined following conditions used for synergy time-kill assays. Synergy time-kill studies were performed following CLSI guidelines.
Time-kill assays followed CLSI guidelines (NCCLS, CLSI document M26-A2, 1999) with the exception that 96 deep-well plates were used. Exponential-phase bacteria were diluted to approximately 5×10^5 colony-forming units (CFU)/mL and exposed to ORI or COL alone, or in combination in CAMHB containing 0.002% P80. Bacteria were enumerated by serial dilution plating. To prevent drug carryover during serial dilution plating, aliquots of the drug-challenged culture were added to an equal volume of 25 mg/mL activated charcoal suspension. […] All experiments were repeated at least two times and a representative experiment is presented in the plots; data points are an average of duplicate CFU/mL determinations within an experiment.

Experiment [3] has the same test system. Put plainly: Broth macrodilution MICs under conditions used for synergy time-kill assays. Type of experiment: cell-based. The following applies: for Broth macrodilution MICs: agent alone, time-kill conditions. The method, then: as §1
Minimum inhibitory concentrations (MICs). Broth microdilution MICs were determined according to CLSI (CLSI document M7-A9, 2013) guidelines with the exception that COL MICs were also determined in the presence of 0.002% polysorbate 80 (P80) since P80 was to be present in the combination tests because of its requirement for testing oritavancin. Broth macrodilution MICs were determined following conditions used for synergy time-kill assays.

In experiment [4] the test system is S. aureus (MSSA, MRSA, VRSA). The following applies: within 15 minutes to 2 hours, MRSA and VRSA; cited from earlier work.

Structures are written as SMILES. Read-outs that look alike come from different tables or passages of the source. Where only a bound is given, the exact number is not on record here.

On to `CN[C@H](CC(C)C)C(=O)N[C@H]1C(=O)N[C@@H](CC(N)=O)C(=O)N[C@H]2C(=O)N[C@H]3C(=O)N[C@H](C(=O)N[C@H](C(=O)O)c4cc(O)cc(O)c4-c4cc3ccc4O)[C@H](O[C@H]3C[C@](C)(N)[C@@H](O)[C@H](C)O3)c3ccc(c(Cl)c3)Oc3cc2cc(c3O[C@@H]2O[C@H](CO)[C@@H](O)[C@H](O)[C@H]2O[C@H]2C[C@](C)(NCc3ccc(-c4ccc(Cl)cc4)cc3)[C@@H](O)[C@H](C)O2)Oc2ccc(cc2Cl)[C@H]1O` [ORI, Oritavancin], for which the MIC in experiment [1] was over 8 µg/mL; in experiment [3] (Acinetobacter baumannii, read-out: Broth macrodilution MICs), over 8 µg/mL. The “Concentrations that yielded synergy in time-kill” value in experiment [2] (strain 2691748 (Non-MDR)) came out at 8 µg/mL; in experiment [2] (strain 2691818 (Non-MDR)) it was 4 µg/mL; in experiment [2] (strain 2691999 (MDR)), 4 µg/mL; in experiment [2] (strain 2692406 (MDR)) it was 4 µg/mL; in experiment [2] (strain 2692650 (MDR)), 4 µg/mL; in experiment [2] (strain 2692721 (MDR)), 4 µg/mL. The “Concentrations that yielded synergy in time-kill” value in experiment [2] (strain 2693922 (MDR)), in experiment [2] (strain 2694038 (MDR)), in experiment [2] (strain 2694224 (MDR)), in experiment [2] (strain 2694227 (MDR)) and in experiment [2] (strain ATCC 19609 (Non-MDR)) was 4 µg/mL in each case. Moreover, the “Broth macrodilution MICs” value in experiment [3] (strain 2691748 (Non-MDR)), in experiment [3] (strain 2691818 (Non-MDR)), in experiment [3] (strain 2691999 (MDR)), in experiment [3] (strain 2692406 (MDR)), in experiment [3] (strain 2692650 (MDR)) and in experiment [3] (strain 2693922 (MDR)) was over 8 µg/mL in each case. Moreover, the “Broth macrodilution MICs” value in experiment [3] (strain 2694038 (MDR)), in experiment [3] (strain 2694224 (MDR)) and in experiment [3] (strain 2694227 (MDR)) was over 8 µg/mL throughout. Also, the “Reduction of exponentially-growing S. aureus (rapidity of bactericidal activity)” value in experiment [4] is on record as at least 3 log.
